From US8710067B2, “Method for the treatment, alleviation of symptoms of, relieving, improving and preventing a cognitive disease, disorder or condition” (Alcobra Ltd., priority 2009, dated 2014)

Key:
[1] = test system: frontoparietal cortex of guinea pigs; conditions: cited from earlier work
ADHD/ADD adult patients [2] = assay: TOVA (Test of Variables of Attention) in ADHD/ADD adult patients (Example 2); type: in vivo, human; conditions: n = 12; Bonferroni adjustment; NS, p 0.258
Protocol: (§1) 38 ADHD/ADD adult patients (age 18-45) of ADHD unit of the Geha Mental Health Center (Israel) were tested.
(§2) A total of four tablets were administered to each patient: • Two tablets of immediate release (IR) formulation (defined in Table 4) and • Two tablets of slow release (SR) formulation (defined in Table 5).
(§3) Tests at inclusion included selection of patients, and included clinical diagnosis by DSM IV, psychiatric examination, WURS & ASRS questionnaires, TOVA (Test of Variables of Attention) score, Wechsler (Wechsler Adult Intelligence Scale) subtests, BDI (Beck Depression Inventory) and STAI (State-Trait Anxiety Inventory) questionnaire.
The TOVA is a computerized test developed to assess attention and impulsivity in normal and clinical populations. Main outcome measures for the TOVA are the Omission Standard Score (SS; inattention measure) the Commission Standard Score (SS; measure of impulse control), the Response Time (RT) SS, the Variability in RT SS, and overall ADHD SS (a composite score of the previous submeasures).
(§4) The Primary outcome measure was the ADHD Score, TOVA Omission, TOVA Commission, TOVA RT and TOVA Variability analysed as Standard Score in % compared to the patient's prior performance of the TOVA test at baseline. Secondary outcome measures were Subtests from Weschler: Digit span, Symbol Search, Digit symbol.

[3] = Pharmacokinetics after single administration to fasted healthy subjects (Example 1); type: in vivo, human
From the text: The above mentioned formulations were given to fasted healthy patients. Blood samples were collected following a predetermined time schedule in order to characterize formulation adsorption and elimination.

[4] = test system: abstinent chronic alcoholic; conditions: abstinent chronic alcoholics, after 1-2 months of abstinence; control group given vitamin B6; cited from earlier work
[5] = test system: animals with alcohol intake; conditions: animal studies, cited from earlier work
humans = conditions: long term data; cited from earlier work
ADHD/ADD adult patients [6] = assay: Wechsler subtests in ADHD/ADD adult patients (Example 2); type: in vivo, human; conditions: single dose 1400 mg, 90 minutes after dosing
Protocol: as §1, §2, §3, §4

[7] = cited from earlier work

## Cc1ncc(CO)c(CO)c1O.O=C1CC[C@@H](C(=O)O)N1 [Metadoxine, pyridoxine L-2-pyrrolidone-5-carboxylate]
[1]
  level of GABA and acetylcholine: increased
ADHD/ADD adult patients [2]
  ADHD Score, Mean Difference, comparison with (3) Metadoxine 1400 mg, other group not given: +3.687 NS
[3]; FIG. 1, immediate/slow release formulations, fasted healthy subjects
  time to maximal concentration: about 0.5 hour
[3]; single administration, dose range 700 to 2100 mg, healthy Caucasian subjects
  dose-linearity for Cmax and AUC: dose-linearity was demonstrated
[4]
  recovery of short-term memory: helps recovery of short-term memory
[5]; during chronic alcohol intake
  increased production of fatty acid esters in the liver: inhibited
[5]
  oxidative stress and glutathione depletion in hepatic tissues: reduced oxidative stress and prevented glutathione depletion
humans
  safety for use by humans: safe for use by humans
ADHD/ADD adult patients [6]
  cognitive functions in the ADHD adult population (Wechsler subtests overall): confirmed the ability of Metadoxine to improve cognitive functions
[7]; Lu Yuan et al.
  mean half life in human serum: about 0.8 hour
[7]; oral and intravenous administration, no appreciable differences
  half life in human serum: 40 to 60 min
[7]; oral
  bioavailability: 60-80%
